Laboratory results reported in patent publication US10407381B2 (THE BOARD OF TRUSTEES OF THE UNIVERSITY OF ILLINOIS, priority 2015, dated 2019).
Read-outs that look alike come from different tables or passages of the source.

Legend:
[1] = biological target: T1, human 5-HT2C-INI (Homo sapiens, UniProt P28335); assay: Calcium flux (FLIPR) assay, human 5-HT2C-INI stably expressed in HEK-293 (Flp-In-293) cells; conditions: human 5-HT2C-INI in HEK-293 cells, FLIPR; for EC50: NA = no activity at 10 μM; for Emax, % 5-HT 5-HT2C: normalized to 5-HT
T1 sequence (P28335 33-458): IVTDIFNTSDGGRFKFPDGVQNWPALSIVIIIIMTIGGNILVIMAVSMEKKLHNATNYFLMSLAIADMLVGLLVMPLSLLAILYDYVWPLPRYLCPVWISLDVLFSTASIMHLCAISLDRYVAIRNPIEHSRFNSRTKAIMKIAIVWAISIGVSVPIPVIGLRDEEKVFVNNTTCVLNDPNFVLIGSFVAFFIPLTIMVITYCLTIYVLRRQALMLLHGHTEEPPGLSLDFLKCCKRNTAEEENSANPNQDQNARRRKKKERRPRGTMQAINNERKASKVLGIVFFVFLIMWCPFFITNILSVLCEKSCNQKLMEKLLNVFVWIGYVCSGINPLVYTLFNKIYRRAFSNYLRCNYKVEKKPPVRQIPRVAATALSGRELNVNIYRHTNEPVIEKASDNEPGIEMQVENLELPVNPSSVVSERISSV

[2] = biological target: 5-HT2B (Homo sapiens, UniProt P41595); assay: Calcium flux (FLIPR) assay, human 5-HT2B stably expressed in HEK-293 (Flp-In-293) cells; conditions: for Emax, % 5-HT 5-HT2B: normalized to 5-HT
Chain of 5-HT2B (P41595 whole entry): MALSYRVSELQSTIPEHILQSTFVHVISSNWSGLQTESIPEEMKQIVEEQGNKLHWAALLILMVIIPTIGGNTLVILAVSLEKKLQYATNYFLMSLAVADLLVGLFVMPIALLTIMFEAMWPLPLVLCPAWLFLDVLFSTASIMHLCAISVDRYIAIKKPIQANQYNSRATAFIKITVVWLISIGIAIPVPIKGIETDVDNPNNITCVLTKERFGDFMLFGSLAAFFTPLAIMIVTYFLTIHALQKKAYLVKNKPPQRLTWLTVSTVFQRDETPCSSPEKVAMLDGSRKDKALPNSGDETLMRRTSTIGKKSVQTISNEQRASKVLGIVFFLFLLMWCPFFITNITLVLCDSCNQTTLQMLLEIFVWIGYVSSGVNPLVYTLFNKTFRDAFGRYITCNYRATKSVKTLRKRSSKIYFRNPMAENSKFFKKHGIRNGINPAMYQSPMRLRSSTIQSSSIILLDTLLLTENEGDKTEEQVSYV

[3] = biological target: 5-HT2A (Homo sapiens, UniProt P28223); assay: Calcium flux (FLIPR) assay, human 5-HT2A stably expressed in HEK-293 (Flp-In-293) cells; conditions: for Emax, % 5-HT 5-HT2A: normalized to 5-HT
Chain of 5-HT2A (P28223 whole entry): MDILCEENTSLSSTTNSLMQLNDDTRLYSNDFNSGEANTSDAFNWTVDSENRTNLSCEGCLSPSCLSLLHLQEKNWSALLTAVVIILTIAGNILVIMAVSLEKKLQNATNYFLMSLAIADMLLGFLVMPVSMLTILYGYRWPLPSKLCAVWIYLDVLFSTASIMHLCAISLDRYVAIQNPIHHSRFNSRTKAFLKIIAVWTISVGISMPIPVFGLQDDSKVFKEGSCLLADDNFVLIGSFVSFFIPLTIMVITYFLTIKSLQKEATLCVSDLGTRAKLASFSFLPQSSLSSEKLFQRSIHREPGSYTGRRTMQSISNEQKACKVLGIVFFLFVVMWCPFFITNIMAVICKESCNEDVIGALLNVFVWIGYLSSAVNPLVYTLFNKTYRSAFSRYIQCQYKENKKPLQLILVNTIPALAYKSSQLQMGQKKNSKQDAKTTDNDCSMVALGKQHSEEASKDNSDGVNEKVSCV

[4] = EC50, nM 5-HT2B, human 5-HT2B in HEK-293 cells, NA = no activity at 10 μM
[5] = EC50, nM 5-HT2A, human 5-HT2A in HEK-293 cells, FLIPR, NA = no activity at 10 μM
[6] = human 5-HT2A in HEK-293 cells, FLIPR
[7] = read-out: EC50, nM 5-HT2B, human 5-HT2B in HEK-293 cells, NA = no activity at 10 μM
[8] = read-out: EC50, nM 5-HT2A, human 5-HT2A in HEK-293 cells, FLIPR, NA = no activity at 10 μM

SMILES	EC50 ([1]; EC50, nM 5-HT2C) [nM]	Emax, % 5-HT 5-HT2C [1]	EC50 [2, 4] [nM]	Emax, % 5-HT 5-HT2B ([2]; human 5-HT2B in HEK-293 cells)	EC50 [3, 5] [nM]	Emax, % 5-HT 5-HT2A [3, 6]	EC50 ([3]; EC50, nM 5-HT2A) [nM]	EC50 [3] [nM]	EC50 ([1]; read-out: EC50, nM 5-HT2C) [nM]	EC50 [2, 7] [nM]	EC50 [3, 8] [nM]
C#CCOc1cc(F)c(Cl)cc1C1CC1CN (single isomer, unassigned; (+)) [(+)-Example 6, (+)-(2-(5-Chloro-4-fluoro-2-(prop-2-yn-1-yloxy)phenyl)cyclopropyl)methanamine]	67	(80%) % 5-HT	1010	(30%) % 5-HT	628	(22%) % 5-HT					
NCC1CC1c1cc(Cl)c(Cl)cc1OCCF (single isomer, unassigned; (-)) [(−)-Example 34, (−)-(2-(4,5-Dichloro-2-(2-fluoroethoxy)phenyl)cyclopropyl)methanamine]	435	(75%) % 5-HT		(12%) % 5-HT		(4%) % 5-HT					
COc1cc(F)c(F)cc1[C@@H]1C[C@H]1CN (single isomer, unassigned) [(−)-Example 40, (−)-(2-(4,5-Difluoro-2-methoxyphenyl)cyclopropyl)methanamine]		(104%) % 5-HT		(59%) % 5-HT	511	(76%) % 5-HT					
CCCOc1cc(F)c(F)cc1C1CC1CN (single isomer, unassigned; (+)) [(+)-Example 43, (+)-(2-(4,5-Difluoro-2-propoxyphenyl)cyclopropyl)methanamine]	26	(93%) % 5-HT	2540	(24%) % 5-HT		(23%) % 5-HT	805				
CCOc1ccc(F)c(Cl)c1C1CC1CN (single isomer, unassigned; (+)) [(+)-Example 51, (+)-(2-(2-Chloro-6-ethoxy-3-fluorophenyl)cyclopropyl)methanamine]	22	(15%) % 5-HT	760	(56%) % 5-HT	761	(47%) % 5-HT					
C=C(C)COc1ccc(Cl)cc1C1CC1CN (single isomer, unassigned; (+)) [(+)-Example 24, (+)-(2-(5-Chloro-2-((2-methylallyl)oxy)phenyl)cyclopropyl)methanamine]	212	(90%) % 5-HT	422	(32%) % 5-HT		(26%) % 5-HT		903			
CCOc1cc(F)c(Cl)cc1C1CC1CN (single isomer, unassigned; (+)) [(+)-Example 2, (+)-(2-(5-Chloro-2-ethoxy-4-fluorophenyl)cyclopropyl)methanamine]	4.1	(92%) % 5-HT	286	(82%) % 5-HT	194	(66%) % 5-HT					
C#CCOc1ccc(Cl)cc1C1CC1CN (single isomer, unassigned; (+)) [(+)-Example 26, (+)-(2-(5-Chloro-2-(prop-2-yn-1-yloxy)phenyl)cyclopropyl)methanamine]	63	(65%) % 5-HT	4600	(29%) % 5-HT	1010	(21%) % 5-HT					
CCOc1ccc(Cl)c(Cl)c1C1CC1CN (single isomer, unassigned; (-)) [(−)-Example 37, (−)-(2-(2,3-Dichloro-6-ethoxyphenyl)cyclopropyl)methanamine]	30	(104%) % 5-HT	6830	(53%) % 5-HT	625	(12%) % 5-HT					
CC(C)Oc1ccc(Cl)cc1C1CC1CN (single isomer, unassigned; (+)) [(+)-Example 14, (+)-(2-(5-Chloro-2-isopropoxyphenyl)cyclopropyl)methanamine]	91	(86%) % 5-HT	997	(37%) % 5-HT	4000	(19%) % 5-HT					
CCOc1cc(F)c(F)cc1C1CC1CN (single isomer, unassigned; (+)) [(+)-Example 41, (+)-(2-(2-Ethoxy-4,5-difluorophenyl)cyclopropyl)methanamine]	2.9	(105%) % 5-HT	55	(59%) % 5-HT	260	(69%) % 5-HT					
NCC1CC1c1cc(Cl)c(Cl)cc1OCCF (single isomer, unassigned; (+)) [(+)-Example 34, (+)-(2-(4,5-Dichloro-2-(2-fluoroethoxy)phenyl)cyclopropyl)methanamine]	18	(87%) % 5-HT	15400	(40%) % 5-HT				92			
COc1cc(Cl)c(Cl)cc1C1CC1CN (single isomer, unassigned; (-)) [(−)-Example 33, (−)-(2-(4,5-Dichloro-2-methoxyphenyl)cyclopropyl)methanamine]		(89%) % 5-HT		(16%) % 5-HT		(75%) % 5-HT			14	696	84
COc1ccc(Cl)c(F)c1C1CC1CN (single isomer, unassigned; (-)) [(−)-Example 29, (−)-(2-(3-chloro-2-fluoro-6-methoxyphenyl)cyclopropyl)methanamine]		(93%) % 5-HT		(64%) % 5-HT		(86%) % 5-HT			3.8	165	68
NCC1CC1c1c(OCCF)ccc(Cl)c1Cl (single isomer, unassigned; (+)) [(+)-Example 38, (+)-(2-(2,3-Dichloro-6-(2-fluoroethoxy)phenyl)cyclopropyl)methanamine]	232	(90%) % 5-HT	5520	(99%) % 5-HT		(22%) % 5-HT		949			
COc1ccc(F)c(Cl)c1C1CC1CN (single isomer, unassigned; (-)) [(−)-Example 50, (−)-(2-(2-Chloro-3-fluoro-6-methoxyphenyl)cyclopropyl)methanamine]		(96%) % 5-HT				(72%) % 5-HT			3.2		119
C=C(F)COc1ccc(F)cc1C1CC1CN (single isomer, unassigned; (+)) [(+)-Example 9, (+)-(2-(5-Fluoro-2-((2-fluoroallyl)oxy)phenyl)cyclopropyl)methanamine]	22	(91%) % 5-HT			1670	(17%) % 5-HT					
NCC1CC1c1cc(F)ccc1OCCF (single isomer, unassigned; (-)) [(−)-Example 10, (−)-(2-(5-Fluoro-2-(2-fluoroethoxy)phenyl)cyclopropyl)methanamine]	514	(77%) % 5-HT			2990	(20%) % 5-HT					
